Measurements published in patent publication US20220016277A1, “MACROCYCLIC COMPLEXES OF RADIONUCLIDES AND THEIR USE IN RADIOTHERAPY OF CANCER” (Cornell University, priority 2018, published 2022).

Assay: Organ distribution of ^225Ac complexes following intravenous injection in mice
Format: in vivo, C57BL/6 mice
Procedure: In Vivo Biodistribution of ^225Ac Complexes of Macropa and DOTA. All experiments were approved by the Institutional Animal Care Committee (IACC) of the University of British Columbia and were performed in accordance with the Canadian Council on Animal Care Guidelines. A total of 9 female C57BL/6 mice (6-8 weeks old, 20-25 g) were used for the biodistribution study of each radiometal complex, n=3 for each time point.
Macropa (100 μL of a 1 mg/mL solution in NH4OAc) was diluted with 387 μL of NH4OAc (1 M, pH 7), and an aliquot (203 μL) of ^225Ac(NO3)3 (˜157 kBq) was then added; the pH of this solution was adjusted to 6.5-7 by the addition of 1 M NaOH (210 μL, trace metal grade). After 5 min at ambient temperature, the reaction solution was analyzed by TLC (0.4 M pH 4 sodium citrate as the eluent), which confirmed >95% radiochemical yield. The reaction was allowed to proceed overnight, and the radiochemical yield was again confirmed to be >95% the following morning. At this time, mice were anesthetized by 2% isoflurane, and approximately 100 μL (10-15 kBq) of the [^225Ac(macropa)]^+ complex were injected into the tail vein of each mouse. After injection, mice were allowed to recover and roam freely in their cages, and were euthanized by CO2 inhalation at 15 min, 1 h, or 5 h (n=3 at each time point) post-injection. Blood was collected by cardiac puncture and placed into an appropriate test tube for scintillation counting. Tissues collected included heart, liver, kidneys, lungs, small intestine, large intestine, brain, bladder, spleen, stomach, pancreas, bone, thyroid, tail, urine, and feces. Tissues were weighed and then counted with a calibrated gamma counter (Packard, Cobra II model 5002) using three energy windows: 60-120 keV (window A), 180-260 keV (window B), and 400-480 keV (window C). Counting was performed both immediately after sacrifice and after 7 days; counts were decay corrected from the time of injection and then converted to the percentage of injected dose (% ID) per gram of tissue (% ID/g). […]
The biodistribution studies of [^225Ac(DOTA)]^− and ^225Ac(NO3)3 were carried out as described above for [^225Ac(macropa)]^+, with the following modifications. [^225Ac(DOTA)^− was prepared by adding ^225Ac(NO3)3 (338 μL, 1.1 MBq) to a solution of DOTA (100 μg, 20 mg/mL in H2O) in NH4OAc (467 μL, 0.15 M, pH 7). The pH of the solution was adjusted to 7 using NH4OAc (150 μL, 1 M, pH 7) and the solution was heated at 85° C. for 45 min. RCY >99% was confirmed by TLC as described above. [^225Ac(DOTA)]^− was diluted with saline to a final concentration of 0.05 MBq/100 μL, and 100 μL were injected into each mouse. ^225Ac(NO3)3 (˜58 μL, 0.4 MBq) was diluted and injected in the same manner as [^225Ac(DOTA)]^−. One mouse that was to be euthanized at the 5 h time point in the [^225Ac(DOTA)]^− study died shortly after injection. In the same manner, one mouse that was to be euthanized at the 1 h time point in the ^225Ac(NO3)3 study died.
The in vivo stability [^225Ac(macropa)]^+ was examined by comparing its biodistribution to those of ^225Ac(NO3)3 and [^225Ac(DOTA)]^−. C57BL/6 mice were injected via tail vein with 10-50 kBq of each radiometal complex and were sacrificed after 15 min, 1 h, or 5 h. The amount of ^225Ac retained in each organ was quantified by gamma counting and reported as the percent of injected dose per gram of tissue (% ID/g). The results of these studies are compiled in Tables 1-3. Inadequate stability of an ^225Ac complex leading to the loss of radioisotope in vivo is manifested by the accumulation of ^225Ac in the liver, spleen, and bone of mice.^[11,12,32] […] The biodistribution profile of [^225Ac(macropa)]^+ (FIG. 3B) differs markedly from that of ^225Ac(NO3)3. […] Its biodistribution profile was similar to that of [^225Ac(DOTA)]^− (FIG. 3C), which has been previously shown to retain ^225Ac^3+ in vivo.^[7]

[1] = 15 min post i.v. injection, energy window A (60-120 keV)
[2] = 15 min post i.v. injection, energy window B (180-260 keV)
[3] = 15 min post i.v. injection, energy window C (400-480 keV)
[4] = 1 h post i.v. injection, energy window A (60-120 keV)
[5] = 1 h post i.v. injection, energy window B (180-260 keV)
[6] = 1 h post i.v. injection, energy window C (400-480 keV)
[7] = 5 h post i.v. injection, energy window A (60-120 keV)
[8] = 5 h post i.v. injection, energy window B (180-260 keV)
[9] = 5 h post i.v. injection, energy window C (400-480 keV)
[10] = C57BL/6 mice, i.v., 15 min to 5 h

Compound: O=[N+]([O-])[O-].O=[N+]([O-])[O-].O=[N+]([O-])[O-].[225Ac] [^225Ac(NO3)3]
- Organ distribution: bladder [1]: 1.477 % ID/g
- Organ distribution: blood [1]: 40.966 % ID/g
- Organ distribution: bone (femur + joint) [1]: 2.764 % ID/g
- Organ distribution: brain [1]: 0.614 % ID/g
- Organ distribution: feces [1]: 0.240 % ID/g
- Organ distribution: heart [1]: 8.557 % ID/g
- Organ distribution: kidneys [1]: 10.468 % ID/g
- Organ distribution: large intestines [1]: 1.116 % ID/g
- Organ distribution: liver [1]: 22.899 % ID/g
- Organ distribution: lungs [1]: 12.757 % ID/g
- Organ distribution: pancreas [1]: 2.366 % ID/g
- Organ distribution: small intestines [1]: 2.002 % ID/g
- Organ distribution: spleen [1]: 22.733 % ID/g
- Organ distribution: stomach [1]: 2.348 % ID/g
- Organ distribution: tail [1]: 7.459 % ID/g
- Organ distribution: thyroids [1]: 4.391 % ID/g
- Organ distribution: urine [1]: 5.527 % ID/g
- Organ distribution: bladder [2]: 1.6996 % ID/g
- Organ distribution: blood [2]: 41.5628 % ID/g
- Organ distribution: bone (femur + joint) [2]: 2.7487 % ID/g
- Organ distribution: brain [2]: 0.6536 % ID/g
- Organ distribution: feces [2]: 0.3857 % ID/g
- Organ distribution: heart [2]: 8.3605 % ID/g
- Organ distribution: kidneys [2]: 9.6424 % ID/g
- Organ distribution: large intestines [2]: 1.1570 % ID/g
- Organ distribution: liver [2]: 23.6091 % ID/g
- Organ distribution: lungs [2]: 12.9714 % ID/g
- Organ distribution: pancreas [2]: 2.2821 % ID/g
- Organ distribution: small intestines [2]: 1.9641 % ID/g
- Organ distribution: spleen [2]: 24.0497 % ID/g
- Organ distribution: stomach [2]: 2.3704 % ID/g
- Organ distribution: tail [2]: 8.0722 % ID/g
- Organ distribution: thyroids [2]: 9.6295 % ID/g
- Organ distribution: urine [2]: 5.0951 % ID/g
- Organ distribution: bladder [3]: 1.9351 % ID/g
- Organ distribution: blood [3]: 42.3521 % ID/g
- Organ distribution: bone (femur + joint) [3]: 3.4560 % ID/g
- Organ distribution: brain [3]: 0.6755 % ID/g
- Organ distribution: feces [3]: 0.4896 % ID/g
- Organ distribution: heart [3]: 9.0992 % ID/g
- Organ distribution: kidneys [3]: 14.2266 % ID/g
- Organ distribution: large intestines [3]: 1.5716 % ID/g
- Organ distribution: liver [3]: 24.1147 % ID/g
- Organ distribution: lungs [3]: 14.4797 % ID/g
- Organ distribution: pancreas [3]: 2.4405 % ID/g
- Organ distribution: small intestines [3]: 2.0956 % ID/g
- Organ distribution: spleen [3]: 25.4263 % ID/g
- Organ distribution: stomach [3]: 2.4232 % ID/g
- Organ distribution: tail [3]: 9.1381 % ID/g
- Organ distribution: thyroids [3]: 3.5934 % ID/g
- Organ distribution: urine [3]: 19.8282 % ID/g
- Organ distribution: bladder [4]: 0.9047 % ID/g
- Organ distribution: blood [4]: 20.8234 % ID/g
- Organ distribution: bone (femur + joint) [4]: 2.4707 % ID/g
- Organ distribution: brain [4]: 0.2995 % ID/g
- Organ distribution: feces [4]: 0.2189 % ID/g
- Organ distribution: heart [4]: 4.4261 % ID/g
- Organ distribution: kidneys [4]: 7.2170 % ID/g
- Organ distribution: large intestines [4]: 0.6035 % ID/g
- Organ distribution: liver [4]: 39.8269 % ID/g
- Organ distribution: lungs [4]: 8.2412 % ID/g
- Organ distribution: pancreas [4]: 2.1771 % ID/g
- Organ distribution: small intestines [4]: 1.5594 % ID/g
- Organ distribution: spleen [4]: 34.8831 % ID/g
- Organ distribution: stomach [4]: 1.6211 % ID/g
- Organ distribution: tail [4]: 5.7939 % ID/g
- Organ distribution: thyroids [4]: 2.5988 % ID/g
- Organ distribution: urine [4]: 4.5194 % ID/g
- Organ distribution: bladder [5]: 0.8092 % ID/g
- Organ distribution: blood [5]: 21.4460 % ID/g
- Organ distribution: bone (femur + joint) [5]: 2.7705 % ID/g
- Organ distribution: brain [5]: 0.3247 % ID/g
- Organ distribution: feces [5]: 0.3300 % ID/g
- Organ distribution: heart [5]: 4.5832 % ID/g
- Organ distribution: kidneys [5]: 6.8770 % ID/g
- Organ distribution: large intestines [5]: 0.5629 % ID/g
- Organ distribution: liver [5]: 41.0995 % ID/g
- Organ distribution: lungs [5]: 8.4426 % ID/g
- Organ distribution: pancreas [5]: 2.1579 % ID/g
- Organ distribution: small intestines [5]: 1.5192 % ID/g
- Organ distribution: spleen [5]: 37.1540 % ID/g
- Organ distribution: stomach [5]: 1.5867 % ID/g
- Organ distribution: tail [5]: 6.4201 % ID/g
- Organ distribution: thyroids [5]: 5.7426 % ID/g
- Organ distribution: urine [5]: 7.0564 % ID/g
- Organ distribution: bladder [6]: 2.2929 % ID/g
- Organ distribution: blood [6]: 11.3736 % ID/g
- Organ distribution: bone (femur + joint) [6]: 2.7213 % ID/g
- Organ distribution: brain [6]: 0.4402 % ID/g
- Organ distribution: feces [6]: 0.1122 % ID/g
- Organ distribution: heart [6]: 3.3464 % ID/g
- Organ distribution: kidneys [6]: 6.2070 % ID/g
- Organ distribution: large intestines [6]: 0.4366 % ID/g
- Organ distribution: liver [6]: 23.6180 % ID/g
- Organ distribution: lungs [6]: 5.2078 % ID/g
- Organ distribution: pancreas [6]: 1.8508 % ID/g
- Organ distribution: small intestines [6]: 3.5548 % ID/g
- Organ distribution: spleen [6]: 38.1082 % ID/g
- Organ distribution: stomach [6]: 2.3350 % ID/g
- Organ distribution: tail [6]: 9.0877 % ID/g
- Organ distribution: thyroids [6]: 0.0000 % ID/g
- Organ distribution: urine [6]: 104.9103 % ID/g
- Organ distribution: bladder [7]: 1.4947 % ID/g
- Organ distribution: blood [7]: 1.9886 % ID/g
- Organ distribution: bone (femur + joint) [7]: 3.5460 % ID/g
- Organ distribution: brain [7]: 0.0452 % ID/g
- Organ distribution: feces [7]: 0.9445 % ID/g
- Organ distribution: heart [7]: 1.3450 % ID/g
- Organ distribution: kidneys [7]: 4.6910 % ID/g
- Organ distribution: large intestines [7]: 0.6479 % ID/g
- Organ distribution: liver [7]: 59.8156 % ID/g
- Organ distribution: lungs [7]: 4.1871 % ID/g
- Organ distribution: pancreas [7]: 0.4874 % ID/g
- Organ distribution: small intestines [7]: 1.3704 % ID/g
- Organ distribution: spleen [7]: 62.9614 % ID/g
- Organ distribution: stomach [7]: 2.6131 % ID/g
- Organ distribution: tail [7]: 23.4055 % ID/g
- Organ distribution: thyroids [7]: −2.7052 % ID/g
- Organ distribution: urine [7]: 4.8267 % ID/g
- Organ distribution: bladder [8]: 1.5234 % ID/g
- Organ distribution: blood [8]: 2.0018 % ID/g
- Organ distribution: bone (femur + joint) [8]: 3.8533 % ID/g
- Organ distribution: brain [8]: 0.0290 % ID/g
- Organ distribution: feces [8]: 1.0201 % ID/g
- Organ distribution: heart [8]: 1.3948 % ID/g
- Organ distribution: kidneys [8]: 3.8752 % ID/g
- Organ distribution: large intestines [8]: 0.6744 % ID/g
- Organ distribution: liver [8]: 62.0765 % ID/g
- Organ distribution: lungs [8]: 4.3379 % ID/g
- Organ distribution: pancreas [8]: 0.4455 % ID/g
- Organ distribution: small intestines [8]: 1.2201 % ID/g
- Organ distribution: spleen [8]: 65.9117 % ID/g
- Organ distribution: stomach [8]: 2.5322 % ID/g
- Organ distribution: tail [8]: 25.4744 % ID/g
- Organ distribution: thyroids [8]: −4.6044 % ID/g
- Organ distribution: urine [8]: 3.3142 % ID/g
- Organ distribution: bladder [9]: 3.4975 % ID/g
- Organ distribution: blood [9]: 2.1769 % ID/g
- Organ distribution: bone (femur + joint) [9]: 3.5851 % ID/g
- Organ distribution: brain [9]: 0.0430 % ID/g
- Organ distribution: feces [9]: 0.8535 % ID/g
- Organ distribution: heart [9]: 1.2018 % ID/g
- Organ distribution: kidneys [9]: 4.2061 % ID/g
- Organ distribution: large intestines [9]: 1.0259 % ID/g
- Organ distribution: liver [9]: 54.1727 % ID/g
- Organ distribution: lungs [9]: 5.4923 % ID/g
- Organ distribution: pancreas [9]: 0.4643 % ID/g
- Organ distribution: small intestines [9]: 1.2922 % ID/g
- Organ distribution: spleen [9]: 62.2357 % ID/g
- Organ distribution: stomach [9]: 2.0358 % ID/g
- Organ distribution: tail [9]: 28.4443 % ID/g
- Organ distribution: thyroids [9]: −0.4455 % ID/g
- Organ distribution: urine [9]: 5.8548 % ID/g
- blood clearance and excretion (in words) [10]: slow blood clearance and excretion
- organ accumulation (in words) [10]: large accumulation in the liver and spleen
